Measured values reported in patent publication US7879853B2, “4,6-disubstituted pyrimidines and their use as protein kinase inhibitors” (Bayer Schering Pharma AG, priority 2004, dated 2011).

Columns and labels:
[1] = test system: phosphorylated Akt1 (Ser473) in MCF7 cells; experiment: Cellular PI3K/Akt pathway assay (pAkt-ELISA); type: cell-based; details: Homo sapiens, β-Heregulin (20 ng/ml) stimulation, 48 h, read-out: Akt pathway inhibition (pAkt-ELISA): IC50
Experimental: In order to study the cellular activity of the compounds according to the invention, an ELISA-based assay has been established. The assay is based on a Sandwich ELISA kit (PathScan™ Phospho-Akt1 (Ser473); Cell Signaling, USA; #7160).
The assay detects endogenous levels of phosphorylated Akt1 protein. A phospho-Akt (Ser473) antibody (Cell Signaling, USA; #9271) has been coated onto the microwells. After incubation with cell lysates, the phosphorylated Akt protein is captured by the coated antibody. Following extensive washing, Akt1 monoclonal antibody (Cell Signaling, USA; #2967) is added to detect the captured phospho-Akt1 protein. HRP-linked anti-mouse antibody (Cell Signaling, USA; #7076) is then used to recognize the bound detection antibody. […] The magnitude of optical density for this developed color is proportional to the quantity of phosphorylated Akt1 protein. […]
Cells are harvested under nondenaturating conditions and lysed with brief sonification in 1× cell lyses buffer (20 mM Tris (pH7.5), 150 mM NaCl, 1 mM ethylene diaminetetraacetate (EDTA), 1 mM ethylene glycolbis-(2-aminoethyl)-N,N,N′,N′-tetraacetic acid (EGTA), 1% Triton X-100, 2.5 mM sodium pyrophosphate, 1 mM β-glycerolphosphate, 1 mM Na3VO4, 1 μg/ml leupeptin). […] The absorbance is read at 450 nm (Wallac Victor2; Perkin Elmer, USA) within 30 minutes after adding STOP solution. […]

[2] = test system: phosphorylated GSK3 (Ser9) in MCF7 cells; experiment: Cellular pGSK3 assay (pGSK3-ELISA); type: cell-based; details: Homo sapiens, 48 h, read-out: GSK3 inhibition (pGSK3-ELISA): IC50
Experimental: In order to study the cellular activity of the compounds according to the invention, an ELISA-based assay has been established for the phosphorylated glycogen synthetase kinase 3, GSK3. The assay is based on a solid phase sandwich ELISA that detects endogenous levels of the phosphorylated GSK3 (BioSource International, Inc.; Catalog #KHO0461). A phospho-GSK3 (Ser9) antibody has been coated onto the microwells. After incubation with cell lysates, the coated antibody captures the phosphorylated GSK3 protein. Following extensive washing, GSK3 polyclonal antibody is added to detect the captured phospho-GSK3 protein. HRP-linked […] antibody (anti-rabbit IgG-HRP) is then used to recognize the bound detection antibody. […]
Cells are harvested and lysed with brief vortexing in cell extraction buffer (10 mM Tris, pH 7.4, 100 mM NaCl, 1 mM EDTA, 1 mM EGTA, 1 mM NaF, 20 mM Na4P2O7, 2 mM Na3VO4, 1% Triton X-100, 10% glycerol, 0.1% SDS, 0.5% deoxycholate, 1 mM PMSF). […] The absorbance is measured at 450 nm (Wallac Victor2; Perkin Elmer, USA) within 30 minutes after adding Stop solution. The analysis of the data is performed using a statistical program (Microsoft Excel, USA) and the inhibition of pGSK3 phosphorylation is determined.

## CC(C)(N)c1ccc(C(=O)Nc2ccc(Nc3cc(-c4cccc5c4oc4ccccc45)ncn3)cc2)cc1 [Compound 69, 4-(1-Amino-1-methyl-ethyl)-N-[4-(6-dibenzofuran-4-yl-pyrimidin-4-ylamino)-phenyl]-benzamide trifluoracetate]
[1]
  IC50: 6 µM
[2]
  IC50: 10 µM
